Data: patent publication US9532970B2, “Compositions for anti-inflammatory, antioxidant effects and improved respiratory function by specific histone deacetylase inhibition” (priority 2014, dated 2017)
Like-named read-outs stand apart in the source and are kept apart here.

Legend:
[1] = tested on: H9c2 cells; details: pre-treated with 10, 15 and 30 μM for 24 hours prior to 1 μM doxorubicin
[2] = target: HDAC-3 (Homo sapiens, UniProt O15379); assay: biochemical
[3] = target: T1, HDAC-6 (Homo sapiens, UniProt Q9UBN7); assay: biochemical
T1 sequence (Q9UBN7 1-1215): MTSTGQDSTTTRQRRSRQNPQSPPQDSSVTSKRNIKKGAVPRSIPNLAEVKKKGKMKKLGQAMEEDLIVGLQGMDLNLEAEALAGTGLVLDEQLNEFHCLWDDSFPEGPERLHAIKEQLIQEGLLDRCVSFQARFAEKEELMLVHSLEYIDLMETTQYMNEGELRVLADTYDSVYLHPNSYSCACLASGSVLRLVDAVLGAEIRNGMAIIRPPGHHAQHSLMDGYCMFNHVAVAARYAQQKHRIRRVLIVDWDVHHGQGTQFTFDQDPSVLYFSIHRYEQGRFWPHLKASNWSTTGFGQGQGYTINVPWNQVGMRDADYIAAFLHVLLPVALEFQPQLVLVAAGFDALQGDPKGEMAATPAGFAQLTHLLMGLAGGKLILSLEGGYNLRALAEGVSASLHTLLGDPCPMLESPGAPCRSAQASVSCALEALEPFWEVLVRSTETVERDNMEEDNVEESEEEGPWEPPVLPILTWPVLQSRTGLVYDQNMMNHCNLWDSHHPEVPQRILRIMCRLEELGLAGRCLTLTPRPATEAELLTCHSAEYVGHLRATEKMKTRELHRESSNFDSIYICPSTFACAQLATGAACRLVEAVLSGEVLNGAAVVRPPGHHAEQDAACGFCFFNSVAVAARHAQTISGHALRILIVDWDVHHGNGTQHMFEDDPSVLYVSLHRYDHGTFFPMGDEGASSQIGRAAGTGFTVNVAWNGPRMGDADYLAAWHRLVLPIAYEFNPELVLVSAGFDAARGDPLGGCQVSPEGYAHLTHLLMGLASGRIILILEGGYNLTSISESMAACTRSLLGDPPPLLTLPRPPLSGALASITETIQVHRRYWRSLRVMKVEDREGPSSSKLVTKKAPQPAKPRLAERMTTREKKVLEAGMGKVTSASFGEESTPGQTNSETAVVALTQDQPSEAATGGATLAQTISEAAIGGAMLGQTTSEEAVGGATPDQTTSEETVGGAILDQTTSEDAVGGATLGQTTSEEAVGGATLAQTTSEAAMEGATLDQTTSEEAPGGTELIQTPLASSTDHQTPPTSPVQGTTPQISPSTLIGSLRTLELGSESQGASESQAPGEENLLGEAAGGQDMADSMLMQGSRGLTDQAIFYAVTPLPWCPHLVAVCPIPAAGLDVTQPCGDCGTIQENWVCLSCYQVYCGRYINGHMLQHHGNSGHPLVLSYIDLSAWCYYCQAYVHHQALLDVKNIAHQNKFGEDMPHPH

[4] = tested on: Horse PBMC

Chain of HDAC-3 (O15379 whole entry, species assumed): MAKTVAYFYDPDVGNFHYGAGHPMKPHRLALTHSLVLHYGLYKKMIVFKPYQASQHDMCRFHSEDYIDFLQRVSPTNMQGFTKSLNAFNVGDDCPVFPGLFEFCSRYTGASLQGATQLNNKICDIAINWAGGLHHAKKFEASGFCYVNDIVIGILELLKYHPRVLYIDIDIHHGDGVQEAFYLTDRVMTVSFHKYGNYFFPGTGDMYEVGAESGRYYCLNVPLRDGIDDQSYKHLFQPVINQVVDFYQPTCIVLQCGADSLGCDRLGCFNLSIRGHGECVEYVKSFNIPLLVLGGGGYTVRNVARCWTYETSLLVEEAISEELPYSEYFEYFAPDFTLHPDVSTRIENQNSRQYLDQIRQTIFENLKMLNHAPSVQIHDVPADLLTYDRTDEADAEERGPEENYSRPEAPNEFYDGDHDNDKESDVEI
Chain of HDAC-3 (Q9Y618 395-489 partner limits assumed, species assumed): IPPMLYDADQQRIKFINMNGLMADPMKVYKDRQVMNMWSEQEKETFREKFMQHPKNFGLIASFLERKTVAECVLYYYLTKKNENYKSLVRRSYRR

`C[S@@+]([O-])CCCCN=C=S` [LSF, (R)-1-Isothiocyanato-4-(methylsulfinyl)butane] was tested, and the “doxorubicin-induced accumulation of γH2AX foci” value [1] was “attenuates”, the IC50 [2] was 20.5 mM and the IC50 [3] was 1.02 mM. It also gave an NES ([4]; ENCODE TF target set GM12878RAD21 (r27)) of −3.95, an NES ([4]; ENCODE TF target set GM12878_RAD21 (r28)) of −3.79 and an NES ([4]; ENCODE TF target set GM12878_YY1) of 3.41. The NES ([4]; ENCODE TF target set GM12878_ZBTB33 (r17)) was 3.05, the NES ([4]; ENCODE TF target set GM12878_ZBTB33 (r21)) was 2.89 and the NES ([4]; ENCODE TF target set H1HESC_POL2 (r12)) was 3.34. For the same compound, the NES ([4]; ENCODE TF target set H1HESC_POL2 (r13)) was 3.33, the NES ([4]; ENCODE TF target set H1NEURONS_NRSF) was 2.84 and the NES ([4]; ENCODE TF target set HEPG2_GRP20_FORSKLN) was 3.01. It also gave an NES ([4]; ENCODE TF target set HEPG2_ZBTB33 (r11)) of 3.35, an NES ([4]; ENCODE TF target set HEPG2_ZBTB33 (r14)) of 3.23 and an NES ([4]; ENCODE TF target set K562_KAP1) of 3.04. For the same compound, the NES ([4]; ENCODE TF target set K562_STAT1_IFNA6H) was −4.54, the NES ([4]; ENCODE TF target set K562_STAT2_IFNA6H) was −4.45 and the NES ([4]; ENCODE TF target set K562_TR4UCD) was 3.13. The NES ([4]; ENCODE TF target set K562_ZBTB33) was 2.78, the NES ([4]; ENCODE TF target set MCF10AES_STAT3) was −3.75 and the NES ([4]; ENCODE TF target set SHSY5Y_GATA3) was 3.13. The NES ([4]; ENCODE TF target set SKNMC_POL2) was 2.91, the NES ([4]; ENCODE TF target set U2OS_SETDB1) was 2.83 and the “expression of CD markers, immunoglobulin containing genes and interleukins” value ([4]; LSF vs control) was “strongly down-regulated”. For the same compound, the “pathways related to interferon signalling, STAT1/2 targets and autoimmune/auto-inflammatory diseases” value ([4]; LSF vs control) was “strongly downregulated”, the NES ([4]; MSigDB gene set ATGTTAA, MIR-302C) was 4.19 and the NES ([4]; MSigDB gene set CHEN HOXA5 TARGETS 9HR UP) was 4.3. It also gave an NES ([4]; MSigDB gene set CTTGTAT, MIR-381) of 4.1, an NES ([4]; MSigDB gene set FULCHER INFLAMMATORY RESPONSE LECTIN VS LPS DN) of −5.59 and an NES ([4]; MSigDB gene set GABRIELY MIR21 TARGETS) of 3.8. It also gave an NES ([4]; MSigDB gene set GCM DFFA) of 4.6, an NES ([4]; MSigDB gene set GCM MLL) of 4.08 and an NES ([4]; MSigDB gene set GCM MYST2) of 4.99. For the same compound, the NES ([4]; MSigDB gene set GCM RAB10) was 3.8, the NES ([4]; MSigDB gene set GCM SUFU) was 4.3 and the NES ([4]; MSigDB gene set GCM UBE2N) was 4.65. The NES ([4]; MSigDB gene set GCM ZNF198) was 4.95, the NES ([4]; MSigDB gene set GSE10239 NAIVE VS MEMORY CD8 TCELL UP) was 4.2 and the NES ([4]; MSigDB gene set GSE10325 CD4 TCELL VS MYELOID DN) was −6.35. The NES ([4]; MSigDB gene set GSE10325 LUPUS BCELL VS LUPUS MYELOID DN) was −6.47, the NES ([4]; MSigDB gene set GSE10325 LUPUS CD4 TCELL VS LUPUS MYELOID DN) was −7.15 and the NES ([4]; MSigDB gene set GSE11057 CD4 EFF MEM VS PBMC DN) was −5.63. It also gave an NES ([4]; MSigDB gene set GSE13485 CTRL VS DAY3 YF17D VACCINE PBMC DN) of −5.66, an NES ([4]; MSigDB gene set GSE13485 CTRL VS DAY7 YF17D VACCINE PBMC DN) of −6.96 and an NES ([4]; MSigDB gene set GSE13485 DAY3 VS DAY7 YF17D VACCINE PBMC DN) of −5.63. The NES ([4]; MSigDB gene set GSE13485 DAY7 VS DAY21 YF17D VACCINE PBMC UP) was −5.61, the NES ([4]; MSigDB gene set GSE22866 NAIVE CD4 TCELL VS MONOCYTE DN) was −5.6 and the NES ([4]; MSigDB gene set GSE24634 IL4 VS CTRL TREATED NAIVE CD4 TCELL DAY5 UP) was −5.8. It also gave an NES ([4]; MSigDB gene set GSE24634 TREG VS TCONV POST DAY10 IL4 CONVERSION DN) of −5.97, an NES ([4]; MSigDB gene set GSE29617 CTRL VS DAY3 TIV FLU VACCINE PBMC 2008 UP) of 4.12 and an NES ([4]; MSigDB gene set GSE29618 BCELL VS MDC DAY7 FLU VACCINE DN) of −5.93. For the same compound, the NES ([4]; MSigDB gene set HAMAI APOPTOSIS VIA TRAIL UP) was 5.42.
